This note sets out measurements from the NIST ThermoML archive (doi:10.1016/j.jct.2011.10.009).

Numbers after ± are expanded uncertainties.

The conditions of this series: 101.33 kPa, Liquid, Vibrating tube method.

The mass density is the mass of a sample divided by its volume.

For the compound `CCO` [ethanol], the mass density reads like this: (278.15 K) 802.08 ± 0.11 kg/m3; (288.15 K) 793.6 ± 0.12 kg/m3; (298.15 K) 785.03 ± 0.12 kg/m3; (308.15 K) 776.35 ± 0.12 kg/m3; (318.15 K) 767.54 ± 0.13 kg/m3.
The like results for `[2H]C(C)O` (stereo not given) [ethanol-1-d] were, in that order, 818.95 ± 0.14 kg/m3, 810.32 ± 0.14 kg/m3, 801.57 ± 0.14 kg/m3, 792.68 ± 0.15 kg/m3 and 783.63 ± 0.15 kg/m3.
